Measurements reported in ChEMBL document CHEMBL3774313, “Natural product-based design, synthesis and biological evaluation of Albiziabioside A derivatives that selectively induce HCT116 cell death” (Eur J Med Chem, 2016).

Experiments:
Format in all cases: functional, cell-based
[1] = system: HeLa; test: Antiproliferative activity against human HeLa cells assessed as cell viability after 72 hrs by MTT assay
[2] = system: MCF7; test: Antiproliferative activity against human MCF7 cells assessed as cell viability after 72 hrs by MTT assay; settings: MCF7, 72 h
[3] = system: HepG2; test: Antiproliferative activity against human HepG2 cells assessed as cell viability after 72 hrs by MTT assay; settings: HepG2, 72 h
[4] = Antiproliferative activity against human HCT116 cells assessed as cell viability after 72 hrs by MTT assay; settings: HCT-116, 72 h
[5] = Antiproliferative activity against human HL60 cells assessed as cell viability after 72 hrs by MTT assay; settings: HL-60, 72 h
[6] = system: A549; test: Antiproliferative activity against human A549 cells assessed as cell viability after 72 hrs by MTT assay; settings: A549, 72 h

Compound | IC50 [1] | IC50 [2] | IC50 [3] | IC50 [4] | IC50 [5] | IC50 [6]
COc1ccccc1/C=C/C(=O)N[C@H]1[C@H](O[C@H]2CC[C@]3(C)[C@H]4CC=C5[C@@H]6CC(C)(C)CC[C@]6(C(=O)O)CC[C@@]5(C)[C@]4(C)CC[C@H]3C2(C)C)O[C@H](CO[C@@H]2OC[C@H](O)[C@H](O)[C@H]2O)[C@@H](O)[C@@H]1O | > 50 µM | > 50 µM | > 50 µM | > 50 µM | > 50 µM | > 50 µM
CC1(C)CC[C@]2(C(=O)O)CC[C@]3(C)C(=CC[C@@H]4[C@@]5(C)CC[C@H](O[C@@H]6O[C@H](CO[C@@H]7OC[C@H](O)[C@H](O)[C@H]7O)[C@@H](O)[C@H](O)[C@H]6NC(=O)/C=C/c6ccc(C(C)(C)C)cc6)C(C)(C)[C@@H]5CC[C@]43C)[C@@H]2C1 | 39.2 µM | > 50 µM | > 50 µM | 13.6 µM | > 50 µM | > 50 µM
COc1ccc(OC)c(/C=C/C(=O)N[C@H]2[C@H](O[C@H]3CC[C@]4(C)[C@H]5CC=C6[C@@H]7CC(C)(C)CC[C@]7(C(=O)O)CC[C@@]6(C)[C@]5(C)CC[C@H]4C3(C)C)O[C@H](CO[C@@H]3OC[C@H](O)[C@H](O)[C@H]3O)[C@@H](O)[C@@H]2O)c1 | > 50 µM | > 50 µM | > 50 µM | > 50 µM | > 50 µM | > 50 µM
CC1(C)CC[C@]2(C(=O)O)CC[C@]3(C)C(=CC[C@@H]4[C@@]5(C)CC[C@H](O[C@@H]6O[C@H](CO[C@@H]7OC[C@H](O)[C@H](O)[C@H]7O)[C@@H](O)[C@H](O)[C@H]6NC(=O)/C=C/c6ccc(OCc7ccccc7)cc6)C(C)(C)[C@@H]5CC[C@]43C)[C@@H]2C1 | > 50 µM | > 50 µM | > 50 µM | 23.8 µM | > 50 µM | > 50 µM
CC1(C)CC[C@]2(C(=O)O)CC[C@]3(C)C(=CC[C@@H]4[C@@]5(C)CC[C@H](O[C@@H]6O[C@H](CO[C@@H]7OC[C@H](O)[C@H](O)[C@H]7O)[C@@H](O)[C@H](O)[C@H]6NC(=O)/C=C/c6ccc(Cl)cc6)C(C)(C)[C@@H]5CC[C@]43C)[C@@H]2C1 | > 50 µM | > 50 µM | > 50 µM | > 50 µM | > 50 µM | > 50 µM
COc1cc(/C=C/C(=O)N[C@H]2[C@H](O[C@H]3CC[C@]4(C)[C@H]5CC=C6[C@@H]7CC(C)(C)CC[C@]7(C(=O)O)CC[C@@]6(C)[C@]5(C)CC[C@H]4C3(C)C)O[C@H](CO[C@@H]3OC[C@H](O)[C@H](O)[C@H]3O)[C@@H](O)[C@@H]2O)cc(OC)c1 | > 50 µM | > 50 µM | > 50 µM | > 50 µM | > 50 µM | > 50 µM
COc1ccc(/C=C/C(=O)N[C@H]2[C@H](O[C@H]3CC[C@]4(C)[C@H]5CC=C6[C@@H]7CC(C)(C)CC[C@]7(C(=O)O)CC[C@@]6(C)[C@]5(C)CC[C@H]4C3(C)C)O[C@H](CO[C@@H]3OC[C@H](O)[C@H](O)[C@H]3O)[C@@H](O)[C@@H]2O)cc1OC | > 50 µM | > 50 µM | > 50 µM | > 50 µM | > 50 µM | > 50 µM
CC1(C)CC[C@]2(C(=O)O)CC[C@]3(C)C(=CC[C@@H]4[C@@]5(C)CC[C@H](O[C@@H]6O[C@H](CO[C@@H]7OC[C@H](O)[C@H](O)[C@H]7O)[C@@H](O)[C@H](O)[C@H]6NC(=O)/C=C/c6ccccc6)C(C)(C)[C@@H]5CC[C@]43C)[C@@H]2C1 | 40.2 µM | 45.2 µM | > 50 µM | 19.3 µM | > 50 µM | > 50 µM
O=c1[nH]cc(F)c(=O)[nH]1 [FLUOROURACIL] | 26.2 µM | 26.1 µM | 49 µM | 38.3 µM | 27.4 µM | > 50 µM
CC(=O)N[C@H]1[C@H](O[C@H]2CC[C@]3(C)[C@H]4CC=C5[C@@H]6CC(C)(C)CC[C@]6(C(=O)O)CC[C@@]5(C)[C@]4(C)CC[C@H]3C2(C)C)O[C@H](CO[C@@H]2OC[C@H](O)[C@H](O)[C@H]2O)[C@@H](O)[C@@H]1O | 5.27 µM | 9.34 µM | 10.3 µM | 16 µM | 9.92 µM | 5.27 µM
CC1(C)CC[C@]2(C(=O)O)CC[C@]3(C)C(=CC[C@@H]4[C@@]5(C)CC[C@H](O[C@@H]6O[C@H](CO[C@@H]7OC[C@H](O)[C@H](O)[C@H]7O)[C@@H](O)[C@H](O)[C@H]6NC(=O)/C=C/c6cccc(Br)c6)C(C)(C)[C@@H]5CC[C@]43C)[C@@H]2C1 | > 50 µM | > 50 µM | > 50 µM | 10.2 µM | > 50 µM | > 50 µM
CC1(C)CC[C@]2(C(=O)O)CC[C@]3(C)C(=CC[C@@H]4[C@@]5(C)CC[C@H](O[C@@H]6O[C@H](CO[C@@H]7OC[C@H](O)[C@H](O)[C@H]7O)[C@@H](O)[C@H](O)[C@H]6NC(=O)/C=C/c6cccc(Cl)c6)C(C)(C)[C@@H]5CC[C@]43C)[C@@H]2C1 | > 50 µM | > 50 µM | > 50 µM | 11.9 µM | > 50 µM | > 50 µM
CC1(C)CC[C@]2(C(=O)O)CC[C@]3(C)C(=CC[C@@H]4[C@@]5(C)CC[C@H](O[C@@H]6O[C@H](CO[C@@H]7OC[C@H](O)[C@H](O)[C@H]7O)[C@@H](O)[C@H](O)[C@H]6NC(=O)/C=C/c6ccc(Br)cc6)C(C)(C)[C@@H]5CC[C@]43C)[C@@H]2C1 | > 50 µM | > 50 µM | > 50 µM | 33.2 µM | > 50 µM | > 50 µM
CC1(C)CC[C@]2(C(=O)O)CC[C@]3(C)C(=CC[C@@H]4[C@@]5(C)CC[C@H](O[C@@H]6O[C@H](CO[C@@H]7OC[C@H](O)[C@H](O)[C@H]7O)[C@@H](O)[C@H](O)[C@H]6NC(=O)/C=C/c6ccc(F)cc6)C(C)(C)[C@@H]5CC[C@]43C)[C@@H]2C1 | > 50 µM | > 50 µM | > 50 µM | 37.5 µM | > 50 µM | > 50 µM
CC1(C)CC[C@]2(C(=O)O)CC[C@]3(C)C(=CC[C@@H]4[C@@]5(C)CC[C@H](O[C@@H]6O[C@H](CO[C@@H]7OC[C@H](O)[C@H](O)[C@H]7O)[C@@H](O)[C@H](O)[C@H]6NC(=O)/C=C/c6cccc(F)c6)C(C)(C)[C@@H]5CC[C@]43C)[C@@H]2C1 | 48.4 µM | > 50 µM | > 50 µM | 8.5 µM | > 50 µM | 32.8 µM
Cc1cccc(/C=C/C(=O)N[C@H]2[C@H](O[C@H]3CC[C@]4(C)[C@H]5CC=C6[C@@H]7CC(C)(C)CC[C@]7(C(=O)O)CC[C@@]6(C)[C@]5(C)CC[C@H]4C3(C)C)O[C@H](CO[C@@H]3OC[C@H](O)[C@H](O)[C@H]3O)[C@@H](O)[C@@H]2O)c1 | > 50 µM | > 50 µM | > 50 µM | > 50 µM | > 50 µM | > 50 µM
